Assays:
Format in all cases: cell-based
[1] = test system: SARS-COV-2 Omicron variant BA.5
[2] = test system: SARS-COV-2 Omicron variant BA.4
[3] = test system: SARS-COV-2 Delta variant B.1.617.2

Structure (SMILES) | SARS-CoV-2 replication fitness (viral gene copies in cell supernatant) [1] | reduction in viral load [2] | reduction in viral load [3] | reduction in viral load [1]
CC(C)NCC(O)c1ccc(O)c(O)c1 (stereo not drawn) [isoproterenol] | didn't affect |  |  | 
CC(C)NCC(O)COc1ccc(CC(N)=O)cc1 (stereo not drawn) [atenolol] | didn't affect |  |  | 
CC(C)(C)NCC(O)COc1cccc2c1CC(O)C(O)C2 (stereo not drawn) [Nadolol] | didn't affect |  |  | 
CC(C)NCC(O)COc1cccc2ccccc12 (stereo not drawn) [Propranolol, 1-(isopropylamino)-3-(1-naphthyloxy)-2-propanol] |  | 2-3 log10 | 2-3 log10 | 2-3 log10

Source: patent US20250064758A1 (priority 2023, published 2025)
